pIC50: −log10 of the molar value.
target: T1, human PAR4 (Homo sapiens, UniProt Q96RI0); assay: PAR4 FLIPR assay: antagonism of agonist-peptide-induced calcium mobilization in PAR4-expressing HEK293 cells; assay type: cell-based; details: H-Ala-Phe(4-F)-[…]NH2-induced intracellular calcium mobilization, 11-point curves
T1 construct: expressed in transfected cells; host or cells: HEK293 PAR4 Clone 1.2A (BMS Arctic ID 383940)
T1 sequence (Q96RI0 18-385): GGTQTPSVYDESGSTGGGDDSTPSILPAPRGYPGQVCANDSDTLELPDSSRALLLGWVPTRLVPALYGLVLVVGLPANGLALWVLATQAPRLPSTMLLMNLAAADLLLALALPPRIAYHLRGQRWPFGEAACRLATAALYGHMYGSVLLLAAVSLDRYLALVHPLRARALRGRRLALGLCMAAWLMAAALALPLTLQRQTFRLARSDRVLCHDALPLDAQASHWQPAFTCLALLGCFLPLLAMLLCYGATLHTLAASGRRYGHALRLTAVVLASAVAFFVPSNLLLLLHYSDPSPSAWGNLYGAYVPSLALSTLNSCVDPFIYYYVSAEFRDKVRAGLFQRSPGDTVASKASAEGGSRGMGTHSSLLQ

Structure (SMILES) | pIC50
COc1cnc2c(-c3nc4cc(F)c(O[C@@H](C)[C@@H](C)OC(=O)Nc5ccnc(C(=O)NCC(C)(C)O)c5)cc4s3)cc(C)cc2n1 [Example 465, (2R,3S)-3-((5-fluoro-2-(2-methoxy-7-methylquinoxalin-5-yl)benzo[d]thiazol-6-yl)oxy)butan-2-yl (2-((2-hydroxy-2-methylpropyl)carbamoyl)pyridin-4-yl)carbamate] | 8.85
CNC(=O)c1cc(NC(=O)O[C@H](C)[C@H](C)Oc2cc3sc(-c4cc(C)cc5nc(OC)cnc45)nc3cc2F)ccn1 [Example 466, (2R,3S)-3-((5-fluoro-2-(2-methoxy-7-methylquinoxalin-5-yl)benzo[d]thiazol-6-yl)oxy)butan-2-yl (2-(methylcarbamoyl)pyridin-4-yl)carbamate] | 9.15
COc1cnc2c(-c3nc4cc(F)c(O[C@@H](C)[C@@H](C)OC(=O)Nc5ccnc(C(=O)N(C)C)c5)cc4s3)cc(C)cc2n1 [Example 467, (2R,3S)-3-((5-fluoro-2-(2-methoxy-7-methylquinoxalin-5-yl)benzo[d]thiazol-6-yl)oxy)butan-2-yl (2-(dimethylcarbamoyl)pyridin-4-yl)carbamate] | 8.72
COc1cnc2c(-c3nc4cc(F)c(O[C@@H](C)[C@@H](C)OC(=O)Nc5cnc(C(=O)N(C)C)nc5)cc4s3)cc(C)cc2n1 [Example 468, (2R,3S)-3-((5-fluoro-2-(2-methoxy-7-methylquinoxalin-5-yl)benzo[d]thiazol-6-yl)oxy)butan-2-yl (2-(dimethylcarbamoyl)pyrimidin-5-yl)carbamate] | 9.10
COc1cnc2c(-c3nc4cc(F)c(OC[C@@H](C)OC(=O)Nc5ccc(C(=O)NCC6(CO)COC6)nc5)cc4s3)cc(C)cc2n1 [Example 470, (R)-1-((5-fluoro-2-(2-methoxy-7-methylquinoxalin-5-yl)benzo[d]thiazol-6-yl)oxy)propan-2-yl (6-(((3-(hydroxymethyl)oxetan-3-yl)methyl)carbamoyl)pyridin-3-yl)carbamate] | 8.66
COc1cnc2c(-c3nc4cc(F)c(OC[C@@H](C)OC(=O)Nc5ccc(C(=O)N(C)CCO)nc5)cc4s3)cc(C)cc2n1 [Example 471, (R)-1-((5-fluoro-2-(2-methoxy-7-methylquinoxalin-5-yl)benzo[d]thiazol-6-yl)oxy)propan-2-yl (6-((2-hydroxyethyl)(methyl)carbamoyl)pyridin-3-yl)carbamate] | 8.28
COc1cnc2c(-c3nc4cc(F)c(OC[C@@H](C)OC(=O)Nc5ccc(C(=O)NCC(C)(C)CO)nc5)cc4s3)cc(C)cc2n1 [Example 472, (R)-1-((5-fluoro-2-(2-methoxy-7-methylquinoxalin-5-yl)benzo[d]thiazol-6-yl)oxy)propan-2-yl (6-((3-hydroxy-2,2-dimethylpropyl)carbamoyl)pyridin-3-yl)carbamate] | 8.34
COc1cnc2c(-c3nc4cc(F)c(OC[C@@H](C)OC(=O)Nc5ccc(C(=O)NCC6(CO)CCC6)nc5)cc4s3)cc(C)cc2n1 [Example 473, (R)-1-((5-fluoro-2-(2-methoxy-7-methylquinoxalin-5-yl)benzo[d]thiazol-6-yl)oxy)propan-2-yl (6-(((1-(hydroxymethyl)cyclobutyl)methyl)carbamoyl)pyridin-3-yl)carbamate] | 8.47
COc1cnc2c(-c3nc4cc(F)c(OC[C@@H](C)OC(=O)Nc5ccc(C(=O)N(C)CC(C)(C)O)nc5)cc4s3)cc(C)cc2n1 [Example 474, (R)-1-((5-fluoro-2-(2-methoxy-7-methylquinoxalin-5-yl)benzo[d]thiazol-6-yl)oxy)propan-2-yl (6-((2-hydroxy-2-methylpropyl)(methyl)carbamoyl)pyridin-3-yl)carbamate] | 7.96
COc1cnc2c(-c3nc4cc(F)c(OC[C@@H](C)OC(=O)Nc5ccc(C(=O)N6CC[C@@H](O)C6)nc5)cc4s3)cc(C)cc2n1 [Example 475] | 8.32
COc1cnc2c(-c3nc4cc(F)c(OC[C@@H](C)OC(=O)Nc5ccc(C(=O)N6CC[C@@H](CO)C6)nc5)cc4s3)cc(C)cc2n1 [Example 476, (R)-1-((5-fluoro-2-(2-methoxy-7-methylquinoxalin-5-yl)benzo[d]thiazol-6-yl)oxy)propan-2-yl (6-((R)-3-(hydroxymethyl)pyrrolidine-1-carbonyl)pyridin-3-yl)carbamate] | 8.00
COc1cnc2c(-c3nc4cc(F)c(OC[C@@H](C)OC(=O)Nc5ccc(C(=O)N6CCO[C@H](CO)C6)nc5)cc4s3)cc(C)cc2n1 [Example 477, (R)-1-((5-fluoro-2-(2-methoxy-7-methylquinoxalin-5-yl)benzo[d]thiazol-6-yl)oxy)propan-2-yl (6-((S)-2-(hydroxymethyl)morpholine-4-carbonyl)pyridin-3-yl)carbamate] | 8.52
COc1cnc2c(-c3nc4cc(F)c(OC[C@@H](C)OC(=O)Nc5ccc(C(=O)N6CC[C@H](O)C6)nc5)cc4s3)cc(C)cc2n1 [Example 478, (R)-1-((5-fluoro-2-(2-methoxy-7-methylquinoxalin-5-yl)benzo[d]thiazol-6-yl)oxy)propan-2-yl (6-((S)-3-hydroxypyrrolidine-1-carbonyl)pyridin-3-yl)carbamate] | 8.04
COc1cnc2c(-c3nc4cc(F)c(OC[C@@H](C)OC(=O)Nc5ccc(C(=O)N6CC[C@H](CO)C6)nc5)cc4s3)cc(C)cc2n1 [Example 479, (R)-1-((5-fluoro-2-(2-methoxy-7-methylquinoxalin-5-yl)benzo[d]thiazol-6-yl)oxy)propan-2-yl (6-((S)-3-(hydroxymethyl)pyrrolidine-1-carbonyl)pyridin-3-yl)carbamate] | 8.85
COc1cnc2c(-c3nc4cc(F)c(OC[C@@H](C)OC(=O)Nc5ccc(C(=O)N6CCO[C@@H](CO)C6)nc5)cc4s3)cc(C)cc2n1 [Example 480, (R)-1-((5-fluoro-2-(2-methoxy-7-methylquinoxalin-5-yl)benzo[d]thiazol-6-yl)oxy)propan-2-yl (6-((R)-2-(hydroxymethyl)morpholine-4-carbonyl)pyridin-3-yl)carbamate] | 8.47
COc1cnc2c(-c3nc4cc(F)c(O[C@@H](C)[C@@H](C)OC(=O)Nc5ccc(C(=O)N6CCC[C@H](O)C6)nc5)cc4s3)cc(C)cc2n1 [Example 481, (2R,3S)-3-((5-fluoro-2-(2-methoxy-7-methylquinoxalin-5-yl)benzo[d]thiazol-6-yl)oxy)butan-2-yl (6-((S)-3-hydroxypiperidine-1-carbonyl)pyridin-3-yl)carbamate] | 9.22
COc1cnc2c(-c3nc4cc(F)c(O[C@@H](C)[C@@H](C)OC(=O)Nc5ccc(C(=O)N6CC[C@H](CO)C6)nc5)cc4s3)cc(C)cc2n1 [Example 482, (2R,3S)-3-((5-fluoro-2-(2-methoxy-7-methylquinoxalin-5-yl)benzo[d]thiazol-6-yl)oxy)butan-2-yl (6-((S)-3-(hydroxymethyl)pyrrolidine-1-carbonyl)pyridin-3-yl)carbamate] | 9.22
COc1cnc2c(-c3nc4cc(F)c(O[C@@H](C)[C@@H](C)OC(=O)Nc5ccc(C(=O)N6CCC[C@@H](O)C6)nc5)cc4s3)cc(C)cc2n1 [Example 483, (2R,3S)-3-((5-fluoro-2-(2-methoxy-7-methylquinoxalin-5-yl)benzo[d]thiazol-6-yl)oxy)butan-2-yl (6-((R)-3-hydroxypiperidine-1-carbonyl)pyridin-3-yl)carbamate] | 9.10
COc1cnc2c(-c3nc4cc(F)c(OC[C@@H](C)OC(=O)Nc5ccc(C(=O)N6CCC[C@H](O)C6)nc5)cc4s3)cc(C)cc2n1 [Example 484, (R)-1-((5-fluoro-2-(2-methoxy-7-methylquinoxalin-5-yl)benzo[d]thiazol-6-yl)oxy)propan-2-yl (6-((S)-3-hydroxypiperidine-1-carbonyl)pyridin-3-yl)carbamate] | 9.00
COc1cnc2c(-c3nc4cc(F)c(OC[C@@H](C)OC(=O)Nc5ccc(C(=O)N6CCC[C@@H](O)C6)nc5)cc4s3)cc(C)cc2n1 [Example 485, (R)-1-((5-fluoro-2-(2-methoxy-7-methylquinoxalin-5-yl)benzo[d]thiazol-6-yl)oxy)propan-2-yl (6-((R)-3-hydroxypiperidine-1-carbonyl)pyridin-3-yl)carbamate] | 8.80
COc1cnc2c(-c3nc4cc(F)c(O[C@@H](C)[C@@H](C)OC(=O)Nc5ccc(C(=O)N6CCOC[C@@H]6CO)nc5)cc4s3)cc(C)cc2n1 [Example 487, (2R,3S)-3-((5-fluoro-2-(2-methoxy-7-methylquinoxalin-5-yl)benzo[d]thiazol-6-yl)oxy)butan-2-yl (6-((S)-3-(hydroxymethyl)morpholine-4-carbonyl)pyridin-3-yl)carbamate] | 8.89
COc1cnc2c(-c3nc4cc(F)c(OC[C@@H](C)OC(=O)Nc5ccc(C(=O)N6CCOC[C@H]6CO)nc5)cc4s3)cc(C)cc2n1 [Example 488, (R)-1-((5-fluoro-2-(2-methoxy-7-methylquinoxalin-5-yl)benzo[d]thiazol-6-yl)oxy)propan-2-yl (6-((R)-3-(hydroxymethyl)morpholine-4-carbonyl)pyridin-3-yl)carbamate] | 7.85
COc1cnc2c(-c3nc4cc(F)c(OC[C@@H](C)OC(=O)Nc5ccc(C(=O)N6CCOC[C@@H]6CO)nc5)cc4s3)cc(C)cc2n1 [Example 489, (R)-1-((5-fluoro-2-(2-methoxy-7-methylquinoxalin-5-yl)benzo[d]thiazol-6-yl)oxy)propan-2-yl (6-((S)-3-(hydroxymethyl)morpholine-4-carbonyl)pyridin-3-yl)carbamate] | 8.04

— patent US12060347B2 (BRISTOL-MYERS SQUIBB COMPANY, priority 2016, dated 2024)
